Experimental data as given in patent US20230220331A1, “TEMPORARY TREATMENT MEDIUM, TREATMENT KIT, EMBRYOGENESIS ARREST INHIBITOR, EMBRYOGENESIS ARREST INHIBITORY METHOD, DEVELOPMENTAL ENGINEERING PRODUCT PREPARATION METHOD, TRANSPLANTATION METHOD, THERAPEUTIC METHOD, AND DEVELOPMENTAL ENGINEERING PRODUCT” (priority 2020, published 2023).

Experiments:
[1] = test system: pig fertilized embryos that had undergone in vitro maturation and in vitro fertilization with frozen semen; experiment: Development of electroporated pig IVM/IVF embryos (Treatment Example 5); format: cell-based
Description: 1. On the day before TAKE, 5 drops of Y-27632-added PZM-5 medium (Y-27632 final concentration 10 μM, an example of the “temporary treatment medium” of this example) was dropped on a 35 mm Petri dish to prepare a drop coated with paraffin oil. In the drop of this example, 20 μL of medium was added dropwise, 1 mL of oil was added, then 20 μL of medium was added again, and the mixture was completely covered with oil. This drop produced twice as many as the TAKE.
2. IVF was performed based on a method common to those skilled in the art.
3. On the day after fertilization, IVF embryos were placed in Y-27632-added PZM-5 medium and cultured for about 30 minutes to 1 hour (temporary treatment).
4. After that, TAKE was performed.
5. The embryos were returned to Y-27632-free PZM-5 medium (an example of the “normal medium” of this example) and cultured under the conditions of 39° C., 5% CO2, and 5% O2.
6. If necessary, sampling, or the like, was performed at the development stage. If the culture is to be continued until the blastocyst stage, the drops containing Y-27632-free PZM-5 medium and PBM medium was made in the same way as the step of “1.” at four days after insemination.
7. […]
In addition, the effect of the temporary treatment medium of this example was measured on pig fertilized embryos that had undergone in vitro maturation and in vitro fertilization with frozen semen.

[2] = test system: Pronuclear stage embryos of C57BL/6J; experiment: Knockout mouse production by electroporation (TAKE), Mk-3 gene (Treatment Example 1); format: cell-based
Description: The TAKE was carried out according to the method described in Patent Document 2.
1. By 3 hours before TAKE, Y-27632-added mWM medium (Y-27632 final concentration 10 μM, an example of the “temporary treatment medium” of this example) and Y-27632-free mWM medium (an example of “normal medium” of this example) were dropped on 35 mm Petri dish in 5 drops, respectively, to prepare the drops covered with paraffin oil.
2. Pronuclear stage embryos were collected from the drops, placed in Y-27632-added mWM medium, and cultured for about 30 minutes to 1 hour (temporary treatment).
3. After that, TAKE was performed. At the time of this TAKE, as described above, the pronuclear stage embryo, after washing, was transferred to a genome editing solution for TAKE or an Opti-MEM solution. The same applied to the following processing.
4. After TAKE, the embryos were placed in Y-27632-added mWM medium (temporary treatment) and cultured under 37° C., 5% CO2, and ([…]) conditions until the next day (1 hour or more and within 12 hours).
5. If necessary, culture was continued or embryo transfer was performed in Y-free mWM medium.
According to a typical method, in the afternoon when female mice and rats were mated with males with vasoligation and confirmed to be plugged, about 10 each were transplanted into the left and right oviducts or uterus of plug-confirmed mature female mice and rats. […]

[3] = test system: thawed 2-cell stage embryos of heterologous inbred SPR2 mouse; experiment: Individuals by embryo transfer after freeze-thaw and electroporation (Treatment Example 5); format: cell-based, Mus spretus
Description: 1. Up to 3 hours before TAKE, Y-27632-added mWM medium (Y-27632 final concentration 10 μM, an example of the “temporary treatment medium” of this example), Y-27632-free mWM medium (an example of “normal medium” of this example) were dropped into 35 mm Petri dishes by 5 drops, respectively, to prepare drops covered with paraffin oil.
2. Two-cell stage embryos were collected from the drops or thawed, placed in Y-27632-added mWM medium, and cultured for about 30 minutes to 1 hour (temporary treatment).
3. After that, TAKE was performed.
4. After TAKE, the embryos were placed in Y-27632-added mWM medium and cultured for about 30 minutes to 1 hour (temporary treatment). Then, the embryos were placed in Y-27632-free mWM medium and cultured at 37° C. under 5% CO2 and 5% O2 conditions until transplantation.
Next, the effect of the temporary treatment medium of this example on the heterologous inbred SPR2 mouse, which cannot obtain the individual by embryo transfer after freeze-thaw and electroporation, was measured.
In the heterologous inbred SPR2 mouse, the thawed 2-cell stage embryos that were cultured in the temporary treatment medium of this example for the specific period before and after electroporation were used, […], and 7 individuals were able to be obtained. […]

[4] = test system: frozen embryos of C57BL/6J; experiment: Recovery of re-frozen and re-thawed blastocysts, cytochalasin B vs Y-27632 (Treatment Example 10); format: cell-based, mouse; conditions: 10 μM in mWM; 19 embryos
Description: In this treatment example, as in the above-mentioned treatment example 9, the normal medium (hereinafter, referred to as “Y− medium” as in the treatment example 9), the temporary treatment medium to which Y-27632 is added (hereinafter, referred to as “Y+ medium” as in the treatment example 9), and a CB-added medium (hereinafter, referred to as “CB+ medium”) were used. The concentrations of CB in the CB+ medium were 5 μM and 10 μM are prepared. As the manipulation, the recovery rates when frozen embryos were thawed and developed, then re-frozen in blastocysts and re-thawed were compared.
For the treatment, 107 frozen embryos of C57BL/6J (provided from CLEA Japan, Inc.) at the 2-cell stage were used. Firstly, the frozen embryos at the 2-cell stage were thawed and blastocysts were developed as they were in a normal medium.
Then, the blastocysts were then transferred to each of the above media and placed for 30 minutes. Then, the embryos were transferred to Y− medium again and placed for 30 minutes.
Then, each embryo was frozen.
Then, the embryos were then thawed and placed in M2 medium for 10 minutes.
Then, each embryo was evenly divided and placed on the medium for 1 hour.
The embryos were observed by returning to the Y− medium again. This observation was performed immediately after thawing, 3 hours later, and 24 hours later.

With `C[C@@H](N)[C@H]1CC[C@H](C(=O)Nc2ccncc2)CC1` [Y-27632, trans-4-[(1R)-1-Aminoethyl]-N-4-pyrid inylcyclohexanecarboxamide] the “2-cell stage embryos developed into late blastocysts (proportion)” value [1] was 35 out of 123, the birth rate increased ([2]; C57BL/6J embryos cultured in Y-27632 medium before and after electroporation, Mk-3 knockout with two gRNAs, versus without Y-27632) was “about 5 times” and the “efficiency of non-homologous end joining (NHEJ)” value ([2]; C57BL/6J, Mk-3 knockout, Y-27632 before and after electroporation) was “did not change”. For the same compound, the individuals obtained ([3]; SPR2 thawed 2-cell embryos, treated before and after electroporation, 17 2-cell embryos transplanted into the oviduct) was 7, the individuals obtained ([3]; SPR2 thawed, electroporated, 16 blastocysts transplanted into the uterus 3.5 days after plug) was 5 and the “RECOVERY RATE about 3 hours later” value [4] was 94%. For the same compound, the “RECOVERY RATE about 24 hours later” value [4] was 89%, the “RECOVERY RATE immediately after thawing” value [4] was 36% and the “number of embryos ABOUT 3 HOURS LATER” value [4] was 18. For the same compound, the “number of embryos ABOUT 24 HOURS LATER” value [4] was 17 and the “number of embryos IMMEDIATELY AFTER THAWING” value [4] was 7.
